# Test system: MV-4-11 cells
# Assay: Gene expression microarray analysis (Affymetrix PrimeView) and GSEA
# Type: cell-based, human
# Set-up: RFU PODN (11730768_x_at) / Fold change /veh PODN (11730768_x_at) / RFU LINC00158 (11744669_a_at) / Fold change /veh LINC00158 (11744669_a_at) / RFU DUSP10 (11751237_a_at) / Fold change /veh DUSP10 (11751237_a_at) / RFU ID3 (11757404_x_at) / Fold change /veh ID3 (11757404_x_at) / RFU PLEKHG5 (11737974_s_at) / Fold change /veh PLEKHG5 (11737974_s_at) / RFU LRRC4B (11730491_at) / Fold change /veh LRRC4B (11730491_at) / RFU GIMAP4 (11747438_a_at) / Fold change /veh GIMAP4 (11747438_a_at) / RFU KRT8 (11758183_x_at) / Fold change /veh KRT8 (11758183_x_at) / RFU CNN1 (11734310_a_at) / Fold change /veh CNN1 (11734310_a_at) / RFU VPS37D (11726825_at) / Fold change /veh VPS37D (11726825_at) / RFU C10orf10 (11716522_x_at) / Fold change /veh C10orf10 (11716522_x_at) / RFU KIR2DL2 /// KIR2DL4 /// KIR2DL5A /// KIR2DL5B /// KIR2DS1 /// KIR2DS2 /// KIR2DS3 /// KIR2DS4 /// KIR3DL3 /// KIR3DL3 /// KIR3DS1 (11738374_at) / Fold change /veh KIR2DL2 /// KIR2DL4 /// KIR2DL5A /// KIR2DL5B /// KIR2DS1 /// KIR2DS2 /// KIR2DS3 /// KIR2DS4 /// KIR3DL3 /// KIR3DL3 /// KIR3DS1 (11738374_at) / RFU C1QL1 (11718748_at) / Fold change /veh C1QL1 (11718748_at) / RFU TMPRSS4 (11747572_a_at) / Fold change /veh TMPRSS4 (11747572_a_at) / RFU HAMP (11756126_x_at) / Fold change /veh HAMP (11756126_x_at) / RFU RNFT2 (11725882_a_at) / Fold change /veh RNFT2 (11725882_a_at) / RFU NR4A2 (11747474_a_at) / Fold change /veh NR4A2 (11747474_a_at) / RFU ABCC12 (11746883_a_at) / Fold change /veh ABCC12 (11746883_a_at) / RFU TMEM136 (11760407_x_at) / Fold change /veh TMEM136 (11760407_x_at) / RFU CLDN22 /// WWC2 (11732394_at) / Fold change /veh CLDN22 /// WWC2 (11732394_at) / RFU HLA-DPB1 (11760878_x_at) / Fold change /veh HLA-DPB1 (11760878_x_at) / RFU SPINT1 (11716480_a_at) / Fold change /veh SPINT1 (11716480_a_at) / RFU GAP43 (11754022_s_at) / Fold change /veh GAP43 (11754022_s_at) / RFU A4GNT (11735810_at) / Fold change /veh A4GNT (11735810_at) / RFU PRB3 (11715151_x_at) / Fold change /veh PRB3 (11715151_x_at) / RFU TUBB4B (11761932_at) / Fold change /veh TUBB4B (11761932_at) / RFU CAPN14 (11732068_a_at) / Fold change /veh CAPN14 (11732068_a_at) / RFU TMCC2 (11721928_a_at) / Fold change /veh TMCC2 (11721928_a_at) / RFU IRGQ (11745062_a_at) / Fold change /veh IRGQ (11745062_a_at) / RFU FAM174B (11720279_a_at) / Fold change /veh FAM174B (11720279_a_at) / RFU TMPRSS4 (11748680_a_at) / Fold change /veh TMPRSS4 (11748680_a_at) / RFU FAM212B (11763350_a_at) / Fold change /veh FAM212B (11763350_a_at) / RFU PLEKHG5 (11743358_a_at) / Fold change /veh PLEKHG5 (11743358_a_at) / RFU ZSCAN30 (11745921_a_at) / Fold change /veh ZSCAN30 (11745921_a_at) / RFU CMKLR1 (11741424_a_at) / Fold change /veh CMKLR1 (11741424_a_at) / RFU LOC101060620 /// MAPK8IP1 (11723275_at) / Fold change /veh LOC101060620 /// MAPK8IP1 (11723275_at) / RFU SPTSSB (11747773_x_at) / Fold change /veh SPTSSB (11747773_x_at) / RFU PRSS12 (11739890_at) / Fold change /veh PRSS12 (11739890_at) / RFU BIN1 (11741810_x_at) / Fold change /veh BIN1 (11741810_x_at) / RFU WNT11 (11732464_a_at) / Fold change /veh WNT11 (11732464_a_at) / RFU C10orf10 (11716521_a_at) / Fold change /veh C10orf10 (11716521_a_at) / RFU C5orf56 (11738089_at) / Fold change /veh C5orf56 (11738089_at) / RFU CYB561 (11721691_x_at) / Fold change /veh CYB561 (11721691_x_at) / RFU ANKRD19P (11752326_a_at) / Fold change /veh ANKRD19P (11752326_a_at) / RFU OR2T12 /// OR2T33 /// OR2T8 (11738714_s_at) / Fold change /veh OR2T12 /// OR2T33 /// OR2T8 (11738714_s_at) / RFU VCAN (11748164_a_at) / Fold change /veh VCAN (11748164_a_at) / RFU JSRP1 (11732532_at) / Fold change /veh JSRP1 (11732532_at) / RFU KRTAP10-11 (11738290_x_at) / Fold change /veh KRTAP10-11 (11738290_x_at) / RFU MYO3A (11730013_a_at) / Fold change /veh MYO3A (11730013_a_at) / RFU EBF3 (11725865_a_at) / Fold change /veh EBF3 (11725865_a_at) / RFU CAMK2N1 (11719241_x_at) / Fold change /veh CAMK2N1 (11719241_x_at) / RFU C5orf56 (11738088_a_at) / Fold change /veh C5orf56 (11738088_a_at) / RFU OLFML3 (11715873_a_at) / Fold change /veh OLFML3 (11715873_a_at) / RFU LOC100653217 /// NTM (11731650_a_at) / Fold change /veh LOC100653217 /// NTM (11731650_a_at) / RFU MAPK11 (11762145_a_at) / Fold change /veh MAPK11 (11762145_a_at) / RFU FIZ1 (11724087_x_at) / Fold change /veh FIZ1 (11724087_x_at) / RFU OASL (11726364_x_at) / Fold change /veh OASL (11726364_x_at) / RFU SOX15 (11748057_x_at) / Fold change /veh SOX15 (11748057_x_at) / RFU CD79A (11719716_a_at) / Fold change /veh CD79A (11719716_a_at) / RFU HIST1H1D (11736915_at) / Fold change /veh HIST1H1D (11736915_at) / RFU CASKIN2 (11723855_a_at) / Fold change /veh CASKIN2 (11723855_a_at) / RFU LOC730098 (11760151_x_at) / Fold change /veh LOC730098 (11760151_x_at) / RFU OR4N2 (11742367_at) / Fold change /veh OR4N2 (11742367_at) / RFU PRRT2 (11749266_a_at) / Fold change /veh PRRT2 (11749266_a_at) / RFU SNX32 (11753110_a_at) / Fold change /veh SNX32 (11753110_a_at) / RFU CDHR5 (11726645_a_at) / Fold change /veh CDHR5 (11726645_a_at) / RFU RCAN1 (11760418_a_at) / Fold change /veh RCAN1 (11760418_a_at) / RFU FAM167A (11723789_a_at) / Fold change /veh FAM167A (11723789_a_at) / RFU FAM26E (11764081_at) / Fold change /veh FAM26E (11764081_at) / RFU ISYNA1 (11749810_s_at) / Fold change /veh ISYNA1 (11749810_s_at) / RFU ACY1 (11761880_at) / Fold change /veh ACY1 (11761880_at) / RFU 11764098_at / Fold change /veh 11764098_at / RFU SAMD14 (11745864_x_at) / Fold change /veh SAMD14 (11745864_x_at) / RFU NPB (11741838_a_at) / Fold change /veh NPB (11741838_a_at) / RFU TMPRSS6 (11731388_a_at) / Fold change /veh TMPRSS6 (11731388_a_at) / RFU KRTAP10-2 (11738614_at) / Fold change /veh KRTAP10-2 (11738614_at) / RFU ARHGAP8 /// PRR5-ARHGAP8 (11727945_x_at) / Fold change /veh ARHGAP8 /// PRR5-ARHGAP8 (11727945_x_at) / RFU KRTAP5-7 /// NADSYN1 (11734609_at) / Fold change /veh KRTAP5-7 /// NADSYN1 (11734609_at) / RFU RASL12 (11751679_a_at) / Fold change /veh RASL12 (11751679_a_at) / RFU CDKN2B (11736163_a_at) / Fold change /veh CDKN2B (11736163_a_at) / RFU PRF1 (11729649_at) / Fold change /veh PRF1 (11729649_at) / RFU, ZNF638 /// ZNF638-IT1 / Fold change vs veh, ZNF638 /// ZNF638-IT1 / RFU, PANK3 / Fold change vs veh, PANK3 / RFU, SH3YL1 / Fold change vs veh, SH3YL1 / RFU, ZEB2 / Fold change vs veh, ZEB2 / RFU, NRIP1 / Fold change vs veh, NRIP1 / RFU, PTTG1IP / Fold change vs veh, PTTG1IP / RFU, CAPN2 / Fold change vs veh, CAPN2 / RFU, MED14 / Fold change vs veh, MED14 / RFU, SNORA58 / Fold change vs veh, SNORA58 / RFU, C1orf63 / Fold change vs veh, C1orf63 / RFU, LRRFIP1 / Fold change vs veh, LRRFIP1 / RFU, NDUFAF7 / Fold change vs veh, NDUFAF7 / RFU, SLC12A2 / Fold change vs veh, SLC12A2 / RFU, IBTK / Fold change vs veh, IBTK / RFU, ESF1 / Fold change vs veh, ESF1 / Fold change vs veh, TMEM50B / RFU, TAOK1 / Fold change vs veh, TAOK1 / RFU, ACBD3 / Fold change vs veh, ACBD3 / RFU, TMA16 / Fold change vs veh, TMA16 / RFU, RWDD3 / Fold change vs veh, RWDD3 / RFU, BCAT1 / Fold change vs veh, BCAT1 / RFU, EDEM3 / Fold change vs veh, EDEM3 / RFU, TMEM33 / Fold change vs veh, TMEM33 / RFU, WDR75 / Fold change vs veh, WDR75 / RFU, AHCTF1 / Fold change vs veh, AHCTF1 / RFU, TFRC / Fold change vs veh, TFRC / RFU, ZDHHC17 / Fold change vs veh, ZDHHC17 / RFU, NOM1 / Fold change vs veh, NOM1 / RFU, ARL8B / Fold change vs veh, ARL8B / RFU, ZBTB11 / Fold change vs veh, ZBTB11 / RFU, TAMM41 / Fold change vs veh, TAMM41 / RFU, KIAA1704 /// LOC100996395 / Fold change vs veh, KIAA1704 /// LOC100996395 / RFU, ING1 / Fold change vs veh, ING1 / RFU, TRMT61B / Fold change vs veh, TRMT61B / RFU, FUBP3 / Fold change vs veh, FUBP3 / RFU, TP53 / Fold change vs veh, TP53 / RFU, TNKS2 / Fold change vs veh, TNKS2 / RFU, ZFP14 / Fold change vs veh, ZFP14 / RFU, ACTR2 / Fold change vs veh, ACTR2 / RFU, PPP3R1 / Fold change vs veh, PPP3R1 / RFU, PIK3R1 / Fold change vs veh, PIK3R1 / RFU, HNRNPA1 / Fold change vs veh, HNRNPA1 / RFU, RNF170 / Fold change vs veh, RNF170 / RFU, ZNF28 / Fold change vs veh, ZNF28 / RFU, RNGTT / Fold change vs veh, RNGTT / RFU, OGT / Fold change vs veh, OGT / RFU, BRD1 / Fold change vs veh, BRD1 / RFU, MARS / Fold change vs veh, MARS / RFU, ZNF655 / Fold change vs veh, ZNF655 / RFU, FAHD1 / Fold change vs veh, FAHD1 / RFU, BDP1 / Fold change vs veh, BDP1 / RFU, LRRCC1 / Fold change vs veh, LRRCC1 / RFU, ARID1A / Fold change vs veh, ARID1A / RFU, ZNF146 / Fold change vs veh, ZNF146 / RFU, ZNF330 / Fold change vs veh, ZNF330 / RFU, GPN3 / Fold change vs veh, GPN3 / RFU, C9orf123 / Fold change vs veh, C9orf123 / RFU, N4BP2L2 / Fold change vs veh, N4BP2L2 / RFU, ARFIP1 / Fold change vs veh, ARFIP1 / RFU, FAM179B / Fold change vs veh, FAM179B / RFU, BCL10 / Fold change vs veh, BCL10 / RFU, UHRF1BP1L / Fold change vs veh, UHRF1BP1L / RFU, BET1 / Fold change vs veh, BET1 / RFU, CNOT2 / Fold change vs veh, CNOT2 / RFU, ZNF268 / Fold change vs veh, ZNF268 / Fold change vs veh, ZNF507 / RFU, DGCR2 / Fold change vs veh, DGCR2 / RFU, WDSUB1 / Fold change vs veh, WDSUB1 / Fold change vs veh, HSP90B1 /// MIR3652 / RFU, ADSS / Fold change vs veh, ADSS / RFU, GK / Fold change vs veh, GK / RFU, ZNF148 / Fold change vs veh, ZNF148 / RFU, TAF9 / Fold change vs veh, TAF9 / RFU, SLC1A5 / Fold change vs veh, SLC1A5 / RFU, SLMO2 / Fold change vs veh, SLMO2 / RFU, ABCC4 / Fold change vs veh, ABCC4 / RFU, LOC101060439 /// RAP1B / Fold change vs veh, LOC101060439 /// RAP1B / RFU, RFX7 / Fold change vs veh, RFX7 / RFU, GTPBP10 / Fold change vs veh, GTPBP10 / RFU, CNEP1R1 / Fold change vs veh, CNEP1R1 / RFU, BIVM-ERCC5 /// ERCC5 / Fold change vs veh, BIVM-ERCC5 /// ERCC5 / RFU, ILF3 / Fold change vs veh, ILF3 / RFU 11762660_at / Fold change /veh 11762660_at / RFU VCAN (11757783_s_at) / Fold change /veh VCAN (11757783_s_at) / RFU DDX43 (11728927_at) / Fold change /veh DDX43 (11728927_at) / RFU KRT8 (11758188_x_at) / Fold change /veh KRT8 (11758188_x_at) / RFU NKD1 (11759106_at) / Fold change /veh NKD1 (11759106_at) / RFU SRD5A1 (11742802_a_at) / Fold change /veh SRD5A1 (11742802_a_at) / RFU TPSAB1 /// TPSB2 (11721975_s_at) / Fold change /veh TPSAB1 /// TPSB2 (11721975_s_at) / RFU GSTM3 (11746129_a_at) / Fold change /veh GSTM3 (11746129_a_at) / RFU IL23R (11737362_x_at) / Fold change /veh IL23R (11737362_x_at) / RFU TMEM51 (11727254_a_at) / Fold change /veh TMEM51 (11727254_a_at) / RFU PIWIL2 (11732686_x_at) / Fold change /veh PIWIL2 (11732686_x_at) / RFU ORM1 (11744905_x_at) / Fold change /veh ORM1 (11744905_x_at) / RFU CCDC152 (11743942_at) / Fold change /veh CCDC152 (11743942_at) / RFU ECM1 (11717891_a_at) / Fold change /veh ECM1 (11717891_a_at) / RFU IL23R (11748794_a_at) / Fold change /veh IL23R (11748794_a_at) / RFU TNFAIP8L3 (11732012_x_at) / Fold change /veh TNFAIP8L3 (11732012_x_at) / RFU MBOAT4 (11741988_at) / Fold change /veh MBOAT4 (11741988_at) / RFU 11764193_at / Fold change /veh 11764193_at / RFU TMEM53 (11763286_at) / Fold change /veh TMEM53 (11763286_at) / RFU MAGEB2 (11727129_at) / Fold change /veh MAGEB2 (11727129_at) / RFU TMEM200A (11744735_a_at) / Fold change /veh TMEM200A (11744735_a_at) / RFU CCDC152 (11751479_a_at) / Fold change /veh CCDC152 (11751479_a_at) / RFU FAM211A (11726209_a_at) / Fold change /veh FAM211A (11726209_a_at) / RFU RGS16 (11746705_a_at) / Fold change /veh RGS16 (11746705_a_at) / RFU VCAN (11755009_s_at) / Fold change /veh VCAN (11755009_s_at) / RFU RHOB (11743442_s_at) / Fold change /veh RHOB (11743442_s_at) / RFU RGS16 (11720943_a_at) / Fold change /veh RGS16 (11720943_a_at) / RFU RGS16 (11720944_at) / Fold change /veh RGS16 (11720944_at) / RFU, VPS4B / Fold change vs veh, VPS4B / RFU, CREB1 / Fold change vs veh, CREB1 / RFU, DNAJC13 / Fold change vs veh, DNAJC13 / RFU, GNAQ / Fold change vs veh, GNAQ / RFU, CDK5R1 / Fold change vs veh, CDK5R1 / RFU, ZRANB3 / Fold change vs veh, ZRANB3 / RFU, CUL4A / Fold change vs veh, CUL4A / RFU, CCNY / Fold change vs veh, CCNY / RFU, UFL1 / Fold change vs veh, UFL1 / RFU, COG3 / Fold change vs veh, COG3 / RFU, DIAPH2 / Fold change vs veh, DIAPH2 / RFU, SKA2 / Fold change vs veh, SKA2 / RFU, AFF3 / Fold change vs veh, AFF3 / RFU, LMF1 / Fold change vs veh, LMF1 / RFU, IPO11 / Fold change vs veh, IPO11 / RFU, DFFB / Fold change vs veh, DFFB / RFU, FOXP1 / Fold change vs veh, FOXP1 / RFU, CARD8 / Fold change vs veh, CARD8 / RFU, STRN3 / Fold change vs veh, STRN3 / RFU, ADK / Fold change vs veh, ADK / RFU, RASSF2 / Fold change vs veh, RASSF2 / RFU, WIPF1 / Fold change vs veh, WIPF1 / RFU, LARP1B / Fold change vs veh, LARP1B / RFU, RASA1 / Fold change vs veh, RASA1 / RFU, RB1 / Fold change vs veh, RB1 / RFU, PPFIA1 / Fold change vs veh, PPFIA1 / RFU, MAT2A / Fold change vs veh, MAT2A / RFU, CCT5 / Fold change vs veh, CCT5 / RFU, WDR92 / Fold change vs veh, WDR92 / RFU, CUX1 / Fold change vs veh, CUX1 / RFU, TTC7A / Fold change vs veh, TTC7A / RFU, TMEM135 / Fold change vs veh, TMEM135 / RFU, DEPTOR / Fold change vs veh, DEPTOR / RFU, CPM / Fold change vs veh, CPM / RFU, DNAJB6 / Fold change vs veh, DNAJB6 / RFU, CACNA2D3 / Fold change vs veh, CACNA2D3 / RFU, DTX4 / Fold change vs veh, DTX4 / RFU, TFCP2 / Fold change vs veh, TFCP2 / RFU, GMCL1 /// GMCL1P1 / Fold change vs veh, GMCL1 /// GMCL1P1 / RFU, AEBP2 / Fold change vs veh, AEBP2 / RFU, SNHG1 /// SNORD22 /// SNORD25 /// SNORD26 /// SNORD27 /// SNORD28 /// SNORD29 /// SNORD31 / Fold change vs veh, SNHG1 /// SNORD22 /// SNORD25 /// SNORD26 /// SNORD27 /// SNORD28 /// SNORD29 /// SNORD31 / Fold change (Aza/veh), C12orf56 (ProbeSet 11735607_a_at) / Fold change (ACY-1035/veh), C12orf56 (ProbeSet 11735607_a_at) / Fold change (Aza/veh), FGFR1OP (ProbeSet 11751329_s_at) / Fold change (ACY-1035/veh), FGFR1OP (ProbeSet 11751329_s_at) / Fold change (Aza/veh), VPS36 (ProbeSet 11739960_a_at) / Fold change (ACY-1035/veh), VPS36 (ProbeSet 11739960_a_at) / RFU SYPL1 (11715823_x_at) / Fold change /veh SYPL1 (11715823_x_at) / RFU IGFBP7 (11715501_s_at) / Fold change /veh IGFBP7 (11715501_s_at) / RFU REEP3 (11722064_at) / Fold change /veh REEP3 (11722064_at) / RFU IGLL1 (11728026_x_at) / Fold change /veh IGLL1 (11728026_x_at): dose or concentration left out as unconfirmed
# Conditions: ProbeSet 11723475_a_at; LIST B
structure (smiles),measurement,value
Nc1ncn([C@@H]2O[C@H](CO)[C@@H](O)[C@H]2O)c(=O)n1 [azacitidine],"Fold change vs veh, TRMT61B",0.91

# From PMC5218480 (PLoS ONE, 2017)
